Columns and labels:
[1] = Chromatographic hydrophobicity index of compound at pH 10.5 by reversed-phase HPLC analysis; format: ADME
[2] = Chromatographic hydrophobicity index of compound at pH 2.0 by reversed-phase HPLC analysis; format: ADME
[3] = Chromatographic hydrophobicity index of compound at pH 7.4 by reversed-phase HPLC analysis; format: ADME
[4] = Permeability of the compound assessed as membrane retention; format: ADME
[5] = Metabolic stability in mouse liver microsomes assessed as half life at 0.5 uM measured upto 30 mins in presence of NADPH by LC-MS/MS analysis; format: ADME, Microsome
[6] = Metabolic stability in mouse liver microsomes assessed as intrinsic clearance at 0.5 uM measured upto 30 mins in presence of NADPH by LC-MS/MS analysis; format: ADME, Microsome; details: read-out: CLH
in vitro = details: mouse

SMILES	CHI [1]	CHI [2]	CHI [3]	R% [4]	half-life at 0.5 µM [5] [min]	microsomal CLint at 0.5 µM [6] [µL/min/mg]	Papp at 2 h, 20 µM (in vitro) [×10⁻⁶ cm/s]
CN(Cc1ccc(COc2ccc3c(CO)cc(=O)oc3c2)cc1)Cc1ncc[nH]1	50.7	34.6	51.6	~ 50%	–	–	–
CN(CCc1ccsc1)Cc1ccc(COc2ccc3c(CO)cc(=O)oc3c2)cc1	95.2	54.3	85.5	–	13.5	103	5.9
CN(Cc1ccncc1)Cc1ccc(COc2ccc3c(CO)cc(=O)oc3c2)cc1	72	32.3	–	–	–	–	–
CN(CCc1cccnc1)Cc1ccc(COc2ccc3c(CO)cc(=O)oc3c2)cc1	69.3	29.9	65.3	–	5.97	233	–
CN(Cc1ccccc1)Cc1ccc(COc2ccc3c(CO)cc(=O)oc3c2)cc1	102.1	53	98	–	–	–	–
CN(Cc1ccc(COc2ccc3c(CO)cc(=O)oc3c2)cc1)Cc1cncnc1	61.4	35.9	62.6	–	–	–	–
CN(Cc1ccc(COc2ccc3c(CO)cc(=O)oc3c2)cc1)Cc1cscn1	69.9	42.2	68.3	–	–	–	–
CN(Cc1ccc(COc2ccc3c(CO)cc(=O)oc3c2)cc1)Cc1ccsc1	95	50.7	90.3	–	22.7	61.2	8
CN(Cc1ccc(COc2ccc3c(CO)cc(=O)oc3c2)cc1)Cc1ccco1	85.1	47.2	83.5	–	–	–	–
CN(CCc1cccs1)Cc1ccc(COc2ccc3c(CO)cc(=O)oc3c2)cc1	97.8	53.7	92.9	–	–	–	–
CN(Cc1ccc(COc2ccc3c(CO)cc(=O)oc3c2)cc1)Cc1cccnc1	70.9	32.9	70.6	–	–	–	–
CN(Cc1ccc(COc2ccc3c(CO)cc(=O)oc3c2)cc1)Cc1nccs1	76.1	42.7	76.7	–	–	–	–
CN(Cc1ccc(COc2ccc3c(CO)cc(=O)oc3c2)cc1)Cc1cccs1	98	50.4	96.5	–	–	–	–
